The target of data set [1] is T1, CYP2A6dH (Homo sapiens, UniProt P11509, Q458E).
T1 construct: expressing residues 29-494 of the catalytic domain without internal modifications; 4xHis (C); made in house; host or cells: Escherichia coli
T1 sequence (P11509 with tags, fused parts or gaps Q458E): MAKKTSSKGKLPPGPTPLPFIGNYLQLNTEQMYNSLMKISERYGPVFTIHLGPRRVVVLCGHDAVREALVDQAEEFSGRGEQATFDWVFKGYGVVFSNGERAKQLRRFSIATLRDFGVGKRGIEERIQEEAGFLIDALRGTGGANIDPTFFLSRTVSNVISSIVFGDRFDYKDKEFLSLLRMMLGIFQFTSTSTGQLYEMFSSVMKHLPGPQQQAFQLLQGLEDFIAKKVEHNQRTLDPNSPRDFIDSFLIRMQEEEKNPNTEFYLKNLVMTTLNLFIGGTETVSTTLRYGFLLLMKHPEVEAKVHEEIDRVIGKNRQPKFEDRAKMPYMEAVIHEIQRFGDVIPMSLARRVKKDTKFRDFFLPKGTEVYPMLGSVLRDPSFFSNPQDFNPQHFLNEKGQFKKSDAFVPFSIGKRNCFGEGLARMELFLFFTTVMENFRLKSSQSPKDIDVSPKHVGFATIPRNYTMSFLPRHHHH
The data set can be described thus: binding constants by visible difference spectroscopy (low spin to high spin conversion). Conditions: for spectral change on binding to the purified enzyme: spectral titration, UV-visible. How it is done: Purified CYP2A6dH was diluted to ˜3 μM in 50 mM KPi pH 7.4, 500 mM NaCl, 20% glycerol, 1 mM EDTA (referred to as XB) in a 1-cm path length microcuvette. […] The total concentration of methanol remained under 1%. Binding was monitored as the absorbance difference, ΔA, between the peak (˜385 nm) and trough (˜417 nm) of the difference spectrum. The apparent binding constant, Ks, and the extrapolated maximum spectral change, ΔAmax, were estimated from nonlinear least-squares regression fitting using the following equation:
[formula] where S is the total concentration of ligand and P is the total concentration of P450.

The target in data set [2] is T1, CYP2A6dH. In words: coumarin 7-hydroxylation by purified CYP2A6dH reconstituted with P450 reductase. In kind it is biochemical. From the text: In this example, to determine catalytic properties for the purified protein, CYP2A6dH was reconstituted with E. coli-expressed purified human reductase in the absence of L-α-dilauroyl-L-α-lecithin with slight modifications to the protocol described by Tan et al. (Competitive interactions between CYP2A6 and cytochrome P450 2E1 for NADPH-cytochrome P450 oxidoreductase in the microsomal membranes produced by a baculovirus expression system. Arch. Biochem. Biophys. 342, 82-91 (1997)). 10 pmol CYP2A6dH was incubated on ice for 10 min. with 0.06 U human reductase at a ratio of 1:6, CYP2A6dH to reductase in a final volume of 10 μl. 1.2 benzopyrone at concentrations ranging from 25 μM to 2.5 mM were then added in […] aliquots, along with 430 μL of 50 mM Tris pH 7.4. The reaction mixture was allowed to equilibrate at 37° C. for 3 min. To start the reaction, 50 μl of an NADPH regeneration system (50 mM isocitrate, 50 mM MgCl2, 5 U/ml isocitrate dehydrogenase and 10 mM NADPH) was added. The reaction was allowed to proceed for 5 min., and stopped by addition of 100 μl of cold 20% trichloroacetic acid. The components were centrifuged at 13,000 rpm. 10 μl of the supernatant was removed and added to 190 μl 100 mM Tris buffer, pH 9.0. the coumarin content was quantified fluorometrically (excitation at 368 nm and emission at 453 nm).

For data set [3], the target named is T2, full length wild-type CYP2A6 (Homo sapiens, UniProt P11509).
T2 construct: for full length wild-type CYP2A6 in microsomal preparations; host or cells: human liver microsomes (panel of 12)
T2 sequence (P11509 1-494): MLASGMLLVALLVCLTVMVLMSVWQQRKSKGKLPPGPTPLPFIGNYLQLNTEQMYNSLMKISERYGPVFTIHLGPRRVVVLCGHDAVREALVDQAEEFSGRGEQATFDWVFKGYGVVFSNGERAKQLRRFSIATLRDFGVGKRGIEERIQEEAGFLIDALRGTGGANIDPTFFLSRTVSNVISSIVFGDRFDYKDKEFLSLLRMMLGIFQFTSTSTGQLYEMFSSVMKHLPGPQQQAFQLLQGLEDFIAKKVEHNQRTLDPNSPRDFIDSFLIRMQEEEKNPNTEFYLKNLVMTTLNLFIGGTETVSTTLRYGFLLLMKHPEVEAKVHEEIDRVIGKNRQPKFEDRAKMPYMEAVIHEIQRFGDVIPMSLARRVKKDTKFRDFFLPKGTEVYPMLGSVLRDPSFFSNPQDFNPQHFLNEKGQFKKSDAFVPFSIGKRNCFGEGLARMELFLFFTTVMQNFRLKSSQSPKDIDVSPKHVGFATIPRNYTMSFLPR
Conditions: microsomal preparations from a panel of 12 human liver microsomes, cited from earlier work. On the technique in general: Microsomes from liver hold many membrane-bound enzymes, among them those of drug oxidation.

Results on 2 molecules are retold here after patent US8076457B2, “Crystal of a cytochrome-ligand complex and methods of use” (The Scripps Research Institute, priority 2005, dated 2011).

What is called Km is the substrate concentration at which the rate is half of its maximum.

For the molecule `COc1c2occc2cc2ccc(=O)oc12` [methoxsalen, 8-methoxypsoralen], the “spectral change on binding to the purified enzyme” value on CYP2A6dH [1] is reported as “type I spectral change”.
In the case of `O=c1ccc2ccccc2o1` [coumarin, 1,2-benzopyrone], on CYP2A6dH [1], the “spectral change on binding to the purified enzyme” value is on record as “type I spectral change”. Also, on CYP2A6dH [1] (substrate dependent conversion to high spin ferric heme protein, read-out: Dissociation constant for binding to purified CYP2A6dH), the Kd turned out to be 0.27 µM. The Michaelis constant (Km) was 0.23 ± 0.03 µM at CYP2A6dH [2] and 0.4 µM in data set [3] (read-out: Km of coumarin hydroxylation (mean value)). Further, the “Vmax for coumarin 7-hydroxylation” value on CYP2A6dH [2] is on record as 10.83±1.38 nmols/min/nmol P450. Besides, the “Vmax of coumarin hydroxylation (mean value)” value in data set [3] is 6.34 nmols/min/nmol P450.
